Data from patent publication US9290507B2, “B-RAF kinase inhibitors” (Boehringer Ingelheim International GmbH, priority 2010, dated 2016).

Target: B-Raf (V600E)-kinase (Homo sapiens (Human), UniProt P15056, V600E)
Test: Kinase test B-Raf (V600E)
Type: biochemical
Conditions: 1 h preincubation, 250 μM ATP
Experimental: In a dilution series 10 μL/well of test substance solution are placed in a multiwell plate. The dilution series is selected so that generally a range of concentrations of 2 μM to 0.119 nM or 0.017 nM is covered. If necessary the initial concentration of 2 μM is changed to 50 μM, 10 μM or 0.4 μM or 0.2857 μM and further dilution is carried out accordingly. The final concentration of DMSO is 5%. 10 μL/well of the B-Raf (V600E)-kinase solution are pipetted in (containing 0.5 ng B-Raf (V600E)-kinase (e.g. from Upstate) in 20 mM Tris-HCl pH 7.5, 0.1 mM EDTA, 0.1 mM EGTA, 0.286 mM sodium orthovanadate, 10% glycerol, 1 mg/mL bovine serum albumin, 1 mM dithiothreitol) and the mixture is incubated for 1 h at RT under with shaking. The kinase reaction is started by the addition of 20 μL/well ATP solution [final concentration: 250 μM ATP, 30 mM Tris-HCl pH 7.5, 0.02% Brij, 0.2 mM sodium orthovanadate, 10 mM magnesium acetate, 0.1 mM EGTA, phosphatase cocktail (Sigma, #P2850, dilution recommended by the manufacturer)] and 10 μL/well MEK1 solution [containing 50 ng biotinylated MEK1 (prepared from purified MEK1 according to standard procedure, e.g. with EZ-Link Sulpho-NHS-LC-Biotin reagent, Pierce, #21335)] and carried out for 60 min at RT with constant shaking. The reaction is stopped by the addition of 12 μL/well of a 100 mM EDTA solution and incubation is continued for a further 5 min. 55 μL/well of the reaction solution are transferred into a streptavidin-coated plate (e.g. Streptawell HighBond, Roche, #11989685001) and shaken gently for 1 h at RT, in order to bind biotinylated MEK1 to the plate. After elimination of the liquid the plate is washed five times with 200 μL/well of 1×PBS and 100 μL/well solution of primary antibody plus europium-labelled secondary antibody [Anti Phospho-MEK (Ser217/221), Cell Signaling, #9121 and Eu-N1 labelled goat-anti-rabbit antibody, Perkin Elmer, #AD0105] is added, the primary antibody is diluted 1:2000 and the secondary antibody is diluted to 0.4-0.5 μg/mL in Delfia Assay Buffer (Perkin Elmer, #1244-111). After 1 h shaking at RT the solution is poured away and washed five times with 200 μL/well Delfia Wash Buffer (Perkin Elmer, #4010-0010/#1244-114). After the addition of 200 μL/well Enhancement Solution (Perkin Elmer, #4001-0010/#1244-105) the mixture is shaken for 10 min at RT and then measured in a Wallac Victor using the program “Delfia Time Resolved Fluorescence (Europium)”. IC50 values are obtained from these dosage-activity curves using a software program (GraphPadPrizm).

B-Raf (V600E)-kinase, sequence (P15056 whole entry V600E): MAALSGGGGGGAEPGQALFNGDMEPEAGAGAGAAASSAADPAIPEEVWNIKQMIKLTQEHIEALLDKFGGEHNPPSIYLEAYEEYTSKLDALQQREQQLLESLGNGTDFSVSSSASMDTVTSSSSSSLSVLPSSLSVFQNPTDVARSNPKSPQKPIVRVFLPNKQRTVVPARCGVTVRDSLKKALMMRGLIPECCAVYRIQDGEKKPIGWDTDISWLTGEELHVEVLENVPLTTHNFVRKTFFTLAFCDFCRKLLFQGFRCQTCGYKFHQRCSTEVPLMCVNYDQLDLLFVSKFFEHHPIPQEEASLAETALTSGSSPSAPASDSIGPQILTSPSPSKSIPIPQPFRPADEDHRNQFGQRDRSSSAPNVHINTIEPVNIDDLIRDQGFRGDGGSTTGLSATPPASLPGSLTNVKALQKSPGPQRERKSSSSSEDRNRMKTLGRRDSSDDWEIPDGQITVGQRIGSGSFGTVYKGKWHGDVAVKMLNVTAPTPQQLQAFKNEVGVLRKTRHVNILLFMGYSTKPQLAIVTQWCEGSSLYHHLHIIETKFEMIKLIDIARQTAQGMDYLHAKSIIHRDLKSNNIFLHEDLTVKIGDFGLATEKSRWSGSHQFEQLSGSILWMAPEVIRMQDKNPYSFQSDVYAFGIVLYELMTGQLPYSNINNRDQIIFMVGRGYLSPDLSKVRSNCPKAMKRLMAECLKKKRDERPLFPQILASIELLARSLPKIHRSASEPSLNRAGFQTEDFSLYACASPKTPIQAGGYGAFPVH

SMILES | IC50
Cc1ccc(C(=O)Nc2cc(C(C)(C)C)on2)cc1-n1cc(-c2cncc(N3CCC(N4CCN(C)CC4)CC3)c2)nn1 [I-90] | 10 nM
CCN1CCN(c2cncc(-c3cn(-c4cc(NC(=O)c5ccc(C(C)(C)C)s5)ccc4C)nn3)c2)CC1 [II-27] | 8 nM
Cc1ccc(C(=O)Nc2cc(C(C)(C)C)on2)cc1-n1cc(-c2cncc(N3CCN(CC4CCCO4)CC3)c2)nn1 (centres unmarked) [I-8] | 22 nM
Cc1ccc(C(=O)Nc2cc(C(C)(C)C)on2)cc1-n1cc(-c2cncc(N3CCN(C)CC3)c2)nn1 [I-1] | 8 nM
Cc1ccc(C(=O)Nc2cc(C(C)(C)C)on2)cc1-n1cc(-c2cncc(N(C)CCN(C)C)c2)nn1 [I-3] | 7 nM
Cc1ccc(C(=O)Nc2cc(C(C)(C)C)n[nH]2)cc1-n1cc(-c2cncc(N3CCOCC3)c2)nn1 [I-13] | 12 nM
Cc1ccc(C(=O)Nc2cc(C(C)(C)C)on2)cc1-n1cc(-c2cncc(NC(C)(C)C)c2)nn1 [I-12] | 18 nM
CCN1CCN(c2cncc(-c3cn(-c4cc(C(=O)Nc5cc(C(C)(C)C)on5)ccc4C)nn3)c2)CC1 [I-48] | 6 nM
Cc1ccc(C(=O)Nc2cc(C(F)(F)F)ccn2)cc1-n1cc(-c2cncc(NC3CCOC3)c2)nn1 (centres unmarked) [I-70] | 11 nM
CCCCN1CCN(c2cncc(-c3cn(-c4cc(C(=O)Nc5cc(C(C)(C)C)on5)ccc4C)nn3)c2)CC1 [I-27] | 15 nM
C=CCN1CCN(c2cncc(-c3cn(-c4cc(C(=O)Nc5cc(C(C)(C)C)on5)ccc4C)nn3)c2)CC1 [I-6] | 22 nM
Cc1ccc(C(=O)Nc2cc(C(C)(C)C)on2)cc1-n1cc(-c2cncc(NCC(F)F)c2)nn1 [I-54] | 51 nM
COCCCN1CCN(c2cncc(-c3cn(-c4cc(C(=O)Nc5cc(C(C)(C)C)on5)ccc4C)nn3)c2)CC1 [I-40] | 19 nM
Cc1ccc(NC(=O)c2cc(CN3CCCC3)c(C(C)(C)C)o2)cc1-n1cc(-c2cncc(N3CCOCC3)c2)nn1 [II-10] | 11 nM
Cc1ccc(C(=O)Nc2cc(C(F)(F)F)ccn2)cc1-n1cc(-c2cncc(N3C[C@@H]4C[C@H]3CN4)c2)nn1 [I-71] | 4 nM
CCN(C)c1cncc(-c2cn(-c3cc(C(=O)Nc4cc(C(C)(C)C)on4)ccc3C)nn2)c1 [I-56] | 18 nM
Cc1ccc(C(=O)Nc2cc(C(F)(F)F)ccn2)cc1-n1cc(-c2cncc(N3CCCC3)c2)nn1 [I-84] | 7 nM
Cc1ccc(C(=O)Nc2cc(C(C)(C)C)on2)cc1-n1cc(-c2cncc(NCCN(C)C)c2)nn1 [I-46] | 7 nM
Cc1ccc(C(=O)Nc2cc(C(F)(F)F)ccn2)cc1-n1cc(-c2cncc(N3C[C@@H]4C[C@H]3CN4C)c2)nn1 [I-82] | 6 nM
Cc1ccc(C(=O)Nc2cc(C(F)(F)F)ccn2)cc1-n1cc(-c2cncc(N3CCC(N(C)C)C3)c2)nn1 (centres unmarked) [I-75] | 7 nM

SMILES | IC50
Cc1ccc(C(=O)Nc2cc(C(C)(C)C)on2)cc1-n1cc(-c2cncc(NC(C)C)c2)nn1 [I-14] | 17 nM
Cc1ccc(NC(=O)c2ccc(C(C)(C)C)o2)cc1-n1cc(-c2cncc(N3CCN(C(C)(C)C)CC3)c2)nn1 [II-3] | 3 nM
Cc1ccc(C(=O)Nc2cc(C(C)(C)C)on2)cc1-n1cc(-c2cncc(N3CC(N4CCN(C)CC4)C3)c2)nn1 [I-93] | 8 nM
Cc1ccc(NC(=O)c2ccc(C(C)(C)C)s2)cc1-n1cc(-c2cncc(N3CCN(C(=O)OC(C)(C)C)CC3)c2)nn1 [II-23] | 141 nM
Cc1ccc(C(=O)Nc2cc(C(C)(C)C)on2)cc1-n1cc(-c2cncc(N3CCN(C(C)(C)C)CC3)c2)nn1 [I-4] | 12 nM
CCCN1CCN(c2cncc(-c3cn(-c4cc(NC(=O)c5cc(C)n(C(C)(C)C)n5)ccc4C)nn3)c2)CC1 [II-37] | 11 nM
Cc1ccc(C(=O)Nc2cc(C(C)(C)C)on2)cc1-n1cc(-c2cncc(N(C)C)c2)nn1 [I-18] | 13 nM
Cc1ccc(C(=O)Nc2cc(C(C)(C)C)on2)cc1-n1cc(-c2cncc(N3CCCOCC3)c2)nn1 [I-17] | 16 nM
Cc1ccc(C(=O)Nc2cc(C(C)(C)C)nn2C)cc1-n1cc(-c2cncc(N3CCOCC3)c2)nn1 [I-24] | 19 nM
Cc1ccc(NC(=O)c2cc(CN(C)CCN(C)C)c(C(C)(C)C)o2)cc1-n1cc(-c2cncc(N3CCOCC3)c2)nn1 [II-43] | 36 nM
Cc1ccc(C(=O)Nc2cc(C(F)(F)F)ccn2)cc1-n1cc(-c2cncc(N(C)C3CCOC3)c2)nn1 (centres unmarked) [I-68] | 7 nM
Cc1ccc(C(=O)Nc2cc(C(C)(C)C)ccn2)cc1-n1cc(-c2cncc(N3CCN(C)CC3)c2)nn1 [I-2] | 18 nM
CCOCCN1CCN(c2cncc(-c3cn(-c4cc(C(=O)Nc5cc(C(C)(C)C)on5)ccc4C)nn3)c2)CC1 [I-49] | 29 nM
Cc1ccc(NC(=O)c2ccc(C(C)(C)C)o2)cc1-n1cc(-c2cncc(N3CCN(CC4CC4)CC3)c2)nn1 [II-16] | 2 nM
Cc1ccc(C(=O)Nc2cc(C(F)(F)F)ccn2)cc1-n1cc(-c2cncc(N3CCCOCC3)c2)nn1 [I-67] | 24 nM
Cc1ccc(C(=O)Nc2cc(C(C)(C)C)on2)cc1-n1cc(-c2cncc(N3CCN(CCN4CCOCC4)CC3)c2)nn1 [I-16] | 14 nM
Cc1ccc(NC(=O)c2cc(C)n(C(C)(C)C)n2)cc1-n1cc(-c2cncc(N3CCN(C4CC4)CC3)c2)nn1 [II-34] | 31 nM
Cc1ccc(NC(=O)c2cc(CN(C)C)c(C(C)(C)C)o2)cc1-n1cc(-c2cncc(N3CCOCC3)c2)nn1 [II-44] | 11 nM
Cc1ccc(C(=O)Nc2cc(C(F)(F)F)ccn2)cc1-n1cc(-c2cncc(N3CCC(N(C)C)CC3)c2)nn1 [I-60] | 8 nM
Cc1ccc(C(=O)Nc2cc(C(F)(F)F)ccn2)cc1-n1cc(-c2cncc(NCCN(C)C)c2)nn1 [I-85] | 10 nM

SMILES | IC50
Cc1ccc(C(=O)Nc2cc(C(C)(C)C)on2)cc1-n1cc(-c2cncc(N3CCC(N(C)C)CC3)c2)nn1 [I-51] | 12 nM
COCCN1CCN(c2cncc(-c3cn(-c4cc(C(=O)Nc5cc(C(F)(F)F)ccn5)ccc4C)nn3)c2)CC1 [I-61] | 11 nM
Cc1ccc(C(=O)Nc2cc(C(C)(C)C)on2)cc1-n1cc(-c2cncc(N3CCN(CC(F)(F)F)CC3)c2)nn1 [I-31] | 98 nM
Cc1ccc(C(=O)Nc2cc(C(C)(C)C)on2)cc1-n1cc(-c2cncc(N3CCC(N4CCN(C(C)C)CC4)C3)c2)nn1 (centres unmarked) [I-92] | 8 nM
COCCN(C)c1cncc(-c2cn(-c3cc(C(=O)Nc4cc(C(C)(C)C)on4)ccc3C)nn2)c1 [I-53] | 11 nM
Cc1ccc(C(=O)Nc2cc(C(C)(C)C)on2)cc1-n1cc(-c2cncc(N3CCC(CN(C)C)CC3)c2)nn1 [I-9] | 12 nM
CCOCCN1CCN(c2cncc(-c3cn(-c4cc(NC(=O)c5ccc(C(C)(C)C)s5)ccc4C)nn3)c2)CC1 [II-28] | 10 nM
Cc1ccc(C(=O)Nc2cc(C(C)(C)C)on2)cc1-n1cc(-c2cncc(N3CCCC3)c2)nn1 [I-39] | 41 nM
Cc1ccc(NC(=O)c2ccc(C(C)(C)C)o2)cc1-n1cc(-c2cncc(N3CCOCC3)c2)nn1 [II-13] | 9 nM
Cc1ccc(C(=O)Nc2cc(C(C)(C)C)on2)cc1-n1cc(-c2cncc(N3CCN(CC(C)C)CC3)c2)nn1 [I-50] | 13 nM
Cc1ccc(C(=O)Nc2cc(C(C)(C)C)on2)cc1-n1cc(-c2cncc(N3C[C@@H](C)O[C@@H](C)C3)c2)nn1 [I-23] | 26 nM
Cc1ccc(NC(=O)c2cc(CNC(C)(C)C)c(C(C)(C)C)o2)cc1-n1cc(-c2cncc(N3CCOCC3)c2)nn1 [II-40] | 11 nM
Cc1ccc(NC(=O)c2cc(C(C)(C)C)on2)cc1-n1cc(-c2cncc(N3CCOCC3)c2)nn1 [II-5] | 8 nM
Cc1ccc(NC(=O)c2cc(C)n(C(C)(C)C)n2)cc1-n1cc(-c2cncc(N3CCCN(C)CC3)c2)nn1 [II-39] | 9 nM
CCCN1CCN(c2cncc(-c3cn(-c4cc(NC(=O)c5ccc(C(C)(C)C)s5)ccc4C)nn3)c2)CC1 [II-25] | 9 nM
Cc1ccc(C(=O)Nc2cc(C(C)(C)C)on2)cc1-n1cc(-c2cncc(N3CCN(C)C(C)C3)c2)nn1 (centres unmarked) [I-15] | 21 nM
Cc1ccc(C(=O)Nc2cc(C(C)(C)C)on2)cc1-n1cc(-c2cncc(NCC(F)(F)F)c2)nn1 [I-21] | 50 nM
Cc1ccc(C(=O)Nc2cc(C(F)(F)F)ccn2)cc1-n1cc(-c2cncc(N3CCN(C(C)C)CC3)c2)nn1 [I-88] | 8 nM
Cc1ccc(C(=O)Nc2cc(C(F)(F)F)ccn2)cc1-n1cc(-c2cncc(N3CCNCC3)c2)nn1 [I-77] | 5 nM
